Measurements taken from PubChem BioAssay (NCI).
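Protocol summary: plate cells (96-well), add compound at 5 concentrations, incubate 48 h, interpolate endpoints linearly. TGI: concentration producing complete growth inhibition.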

Legend:
Experiment in all cases: DTP human tumour cell line panel, 48 h
SW-620 colon = system: SW-620 colon
HT29 colon = system: HT29 colon
NCI-H460 lung = system: NCI-H460 lung
M14 melanoma = system: M14 melanoma
T-47D breast = system: T-47D breast
OVCAR-3 ovarian = system: OVCAR-3 ovarian
OVCAR-4 ovarian = system: OVCAR-4 ovarian
SK-MEL-5 melanoma = system: SK-MEL-5 melanoma
ACHN renal = system: ACHN renal
BT-549 breast = system: BT-549 breast
MCF7 breast = system: MCF7 breast
MOLT-4 leukemia = system: MOLT-4 leukemia
KM12 colon = system: KM12 colon
SNB-75 CNS = system: SNB-75 CNS
SF-539 CNS = system: SF-539 CNS
CCRF-CEM leukemia = system: CCRF-CEM leukemia
MALME-3M melanoma = system: MALME-3M melanoma
DU-145 prostate = system: DU-145 prostate
U251 CNS = system: U251 CNS
MDA-MB-435 = system: MDA-MB-435
A498 renal = system: A498 renal
SK-OV-3 ovarian = system: SK-OV-3 ovarian
SR leukemia = system: SR leukemia
OVCAR-8 ovarian = system: OVCAR-8 ovarian
786-0 renal = system: 786-0 renal
RPMI-8226 leukemia = system: RPMI-8226 leukemia
LOX IMVI melanoma = system: LOX IMVI melanoma
PC-3 prostate = system: PC-3 prostate
EKVX NSCLC = system: EKVX NSCLC
RXF 393 renal = system: RXF 393 renal
SK-MEL-28 melanoma = system: SK-MEL-28 melanoma
NCI-H226 lung = system: NCI-H226 lung
OVCAR-5 ovarian = system: OVCAR-5 ovarian
UACC-257 melanoma = system: UACC-257 melanoma
SF-268 CNS = system: SF-268 CNS
HOP-62 NSCLC = system: HOP-62 NSCLC
SF-295 CNS = system: SF-295 CNS
SN12C renal = system: SN12C renal
SNB-19 CNS = system: SNB-19 CNS
NCI-H23 lung = system: NCI-H23 lung
HCC-2998 colon = system: HCC-2998 colon
HOP-92 NSCLC = system: HOP-92 NSCLC
HCT-116 colon = system: HCT-116 colon
UACC-62 melanoma = system: UACC-62 melanoma
K-562 leukemia = system: K-562 leukemia
NCI-H522 lung = system: NCI-H522 lung
IGROV1 ovarian = system: IGROV1 ovarian
A549 NSCLC = system: A549 NSCLC
COLO 205 colon = system: COLO 205 colon
HL-60(TB) leukemia = system: HL-60(TB) leukemia
MDA-MB-231 breast = system: MDA-MB-231 breast
MDA-N = system: MDA-N
UO-31 renal = system: UO-31 renal
TK-10 renal = system: TK-10 renal
NCI/ADR-RES ovarian = system: NCI/ADR-RES ovarian
CAKI-1 renal = system: CAKI-1 renal
SK-MEL-2 melanoma = system: SK-MEL-2 melanoma
HCT-15 colon = system: HCT-15 colon

Cc1nc2ccccc2c(=O)n1NC(=O)c1ccc(N)cc1 was tested, and the TGI (SW-620 colon) was > 100 µM, the TGI (HT29 colon) was > 100 µM and the TGI (NCI-H460 lung) was > 100 µM. The TGI (M14 melanoma) was > 100 µM, the TGI (T-47D breast) was > 100 µM and the TGI (OVCAR-3 ovarian) was > 100 µM. For the same compound, the TGI (OVCAR-4 ovarian) was > 100 µM, the TGI (SK-MEL-5 melanoma) was > 100 µM and the TGI (ACHN renal) was > 100 µM. For the same compound, the TGI (BT-549 breast) was > 100 µM, the TGI (MCF7 breast) was > 100 µM and the TGI (MOLT-4 leukemia) was > 100 µM. For the same compound, the TGI (KM12 colon) was > 100 µM, the TGI (SNB-75 CNS) was > 100 µM and the TGI (SF-539 CNS) was > 100 µM. For the same compound, the TGI (CCRF-CEM leukemia) was > 100 µM, the TGI (MALME-3M melanoma) was > 100 µM and the TGI (DU-145 prostate) was > 100 µM. For the same compound, the TGI (U251 CNS) was > 100 µM, the TGI (MDA-MB-435) was > 100 µM and the TGI (A498 renal) was > 100 µM. For the same compound, the TGI (SK-OV-3 ovarian) was > 100 µM, the TGI (SR leukemia) was > 100 µM and the TGI (OVCAR-8 ovarian) was > 100 µM. The TGI (786-0 renal) was > 100 µM, the TGI (RPMI-8226 leukemia) was > 100 µM and the TGI (LOX IMVI melanoma) was > 100 µM. The TGI (PC-3 prostate) was > 100 µM, the TGI (EKVX NSCLC) was > 100 µM and the TGI (RXF 393 renal) was > 100 µM. For the same compound, the TGI (SK-MEL-28 melanoma) was > 100 µM, the TGI (NCI-H226 lung) was > 100 µM and the TGI (OVCAR-5 ovarian) was > 100 µM. The TGI (UACC-257 melanoma) was > 100 µM, the TGI (SF-268 CNS) was > 100 µM and the TGI (HOP-62 NSCLC) was > 100 µM. For the same compound, the TGI (SF-295 CNS) was > 100 µM, the TGI (SN12C renal) was > 100 µM and the TGI (SNB-19 CNS) was > 100 µM. The TGI (NCI-H23 lung) was > 100 µM, the TGI (HCC-2998 colon) was > 100 µM and the TGI (HOP-92 NSCLC) was > 100 µM. For the same compound, the TGI (HCT-116 colon) was > 100 µM, the TGI (UACC-62 melanoma) was > 100 µM and the TGI (K-562 leukemia) was > 100 µM. For the same compound, the TGI (NCI-H522 lung) was > 100 µM, the TGI (IGROV1 ovarian) was > 100 µM and the TGI (A549 NSCLC) was > 100 µM. For the same compound, the TGI (COLO 205 colon) was > 100 µM, the TGI (HL-60(TB) leukemia) was > 100 µM and the TGI (MDA-MB-231 breast) was > 100 µM. The TGI (MDA-N) was > 100 µM, the TGI (UO-31 renal) was > 100 µM and the TGI (TK-10 renal) was > 100 µM.

With Oc1ccc(-c2nc3ccc(F)cc3s2)cc1 the TGI (SW-620 colon) was > 100 µM, the TGI (HT29 colon) was 31.3 µM and the TGI (NCI-H460 lung) was 59 µM. For the same compound, the TGI (M14 melanoma) was 37.3 µM, the TGI (T-47D breast) was 36 µM and the TGI (OVCAR-3 ovarian) was 90.9 µM. It also gave a TGI (OVCAR-4 ovarian) of 58.1 µM, a TGI (SK-MEL-5 melanoma) of 38 µM and a TGI (ACHN renal) of 38.6 µM. For the same compound, the TGI (BT-549 breast) was 37.4 µM, the TGI (MCF7 breast) was 59.1 µM and the TGI (MOLT-4 leukemia) was > 100 µM. The TGI (KM12 colon) was 33.8 µM, the TGI (NCI/ADR-RES ovarian) was 52.8 µM and the TGI (SF-539 CNS) was 34 µM. It also gave a TGI (MALME-3M melanoma) of 38.5 µM, a TGI (DU-145 prostate) of 30.3 µM and a TGI (U251 CNS) of 39.9 µM. The TGI (MDA-MB-435) was 41.5 µM, the TGI (SK-OV-3 ovarian) was 42.8 µM and the TGI (SR leukemia) was 53.4 µM. For the same compound, the TGI (OVCAR-8 ovarian) was 39.9 µM, the TGI (786-0 renal) was 36 µM and the TGI (RPMI-8226 leukemia) was 63.9 µM. It also gave a TGI (LOX IMVI melanoma) of 39.7 µM, a TGI (PC-3 prostate) of 44.5 µM and a TGI (EKVX NSCLC) of 25.4 µM. It also gave a TGI (RXF 393 renal) of 68.2 µM, a TGI (CAKI-1 renal) of 37 µM and a TGI (NCI-H226 lung) of 44.5 µM. It also gave a TGI (OVCAR-5 ovarian) of 44.7 µM, a TGI (UACC-257 melanoma) of 37.2 µM and a TGI (SF-268 CNS) of 58.9 µM. The TGI (SF-295 CNS) was 33.9 µM, the TGI (SN12C renal) was 40.9 µM and the TGI (SNB-19 CNS) was 51.2 µM. The TGI (NCI-H23 lung) was 48.3 µM, the TGI (SK-MEL-2 melanoma) was 34.9 µM and the TGI (HCT-116 colon) was 32.9 µM. For the same compound, the TGI (UACC-62 melanoma) was 34.8 µM, the TGI (K-562 leukemia) was > 100 µM and the TGI (NCI-H522 lung) was 26.9 µM. The TGI (IGROV1 ovarian) was 34.6 µM, the TGI (HCT-15 colon) was 35 µM and the TGI (A549 NSCLC) was 43.1 µM. The TGI (COLO 205 colon) was 29.9 µM, the TGI (HL-60(TB) leukemia) was 51.8 µM and the TGI (MDA-MB-231 breast) was 49 µM. For the same compound, the TGI (MDA-N) was 70.6 µM, the TGI (UO-31 renal) was 30.1 µM and the TGI (TK-10 renal) was 34.1 µM.

With CCc1c(-c2ccccc2)[nH]c2ccccc2c1=O the TGI (HT29 colon) was > 100 µM, the TGI (NCI-H460 lung) was > 100 µM and the TGI (M14 melanoma) was > 100 µM. For the same compound, the TGI (T-47D breast) was > 100 µM, the TGI (OVCAR-3 ovarian) was > 100 µM and the TGI (OVCAR-4 ovarian) was > 100 µM. The TGI (SK-MEL-5 melanoma) was > 100 µM, the TGI (ACHN renal) was > 100 µM and the TGI (BT-549 breast) was > 100 µM. For the same compound, the TGI (MCF7 breast) was > 100 µM, the TGI (MOLT-4 leukemia) was > 100 µM and the TGI (KM12 colon) was > 100 µM. The TGI (SF-539 CNS) was > 100 µM, the TGI (CCRF-CEM leukemia) was > 100 µM and the TGI (MALME-3M melanoma) was > 100 µM. The TGI (DU-145 prostate) was > 100 µM, the TGI (U251 CNS) was > 100 µM and the TGI (MDA-MB-435) was > 100 µM. The TGI (A498 renal) was > 100 µM, the TGI (SK-OV-3 ovarian) was > 100 µM and the TGI (SR leukemia) was > 100 µM. For the same compound, the TGI (RPMI-8226 leukemia) was > 100 µM, the TGI (LOX IMVI melanoma) was > 100 µM and the TGI (EKVX NSCLC) was > 100 µM. For the same compound, the TGI (RXF 393 renal) was > 100 µM, the TGI (CAKI-1 renal) was > 100 µM and the TGI (SK-MEL-28 melanoma) was > 100 µM. For the same compound, the TGI (NCI-H226 lung) was 84 µM, the TGI (OVCAR-5 ovarian) was > 100 µM and the TGI (UACC-257 melanoma) was > 100 µM. The TGI (SF-268 CNS) was > 100 µM, the TGI (HOP-62 NSCLC) was > 100 µM and the TGI (SN12C renal) was > 100 µM. For the same compound, the TGI (SNB-19 CNS) was > 100 µM, the TGI (NCI-H23 lung) was > 100 µM and the TGI (SK-MEL-2 melanoma) was > 100 µM. For the same compound, the TGI (HCC-2998 colon) was > 100 µM, the TGI (HCT-116 colon) was > 100 µM and the TGI (UACC-62 melanoma) was > 100 µM. For the same compound, the TGI (K-562 leukemia) was > 100 µM, the TGI (HCT-15 colon) was > 100 µM and the TGI (A549 NSCLC) was > 100 µM. The TGI (HL-60(TB) leukemia) was > 100 µM, the TGI (MDA-MB-231 breast) was > 100 µM and the TGI (MDA-N) was > 100 µM. The TGI (UO-31 renal) was 0.266 µM and the TGI (TK-10 renal) was > 100 µM.
